From patent US20140228287A1, “1-[(3-CYANO-PYRIDIN-2-YL)METHYL]-3-METHYL-7-(2-BUTYN-1-YL)-8-[3-(R)-AMINO-PIPERIDIN-1-YL]-AXANTHINE FOR THE TREATMENT OF A METABOLIC DISORDER OF A PREDOMINANTLY CARNIVOROUS NON-HUMAN ANIMAL” (BOEHRINGER INGELHEIM VETMEDICA GMBH, priority 2010, published 2014)
Counter-ions that a name gives are not always drawn. Like-named read-outs stand apart in the source and are kept apart here.

Columns and labels:
[1] = biological target: thrombin (Homo sapiens, UniProt P00734); assay: In vitro selectivity, human proteases: thrombin; format: biochemical; settings: up to 100 μM
From the text: (§1) In order to determine the in vitro selectivity of 1-[(3-cyano-pyridin-2-yl)methyl]-3-methyl-7-(2-butyn-1-yl)-8-[3-(R)-amino-piperidin-1-yl]-xanthine, the ability of this compound to inhibit a number of human proteases was investigated as described in Thomas et al. (2008), J. Pharmacol. Exp. Ther., vol. 325, p. 175-182, chapter In vitro DPP-4 Inhibition Assay, p. 176.

[2] = biological target: T1, plasma DPP IV (Rattus norvegicus, UniProt P14740); assay: Inhibition of plasma DPP IV activity in vitro, rat plasma; format: biochemical
T1 construct: from tissue
Description: Studies were also conducted to assess the inhibitory effect of this compound on plasma DPP IV activity in several species.

[3] = biological target: DPP 9 (Homo sapiens, UniProt Q86TI2); assay: In vitro selectivity, human proteases: DPP 9; format: biochemical
From the text: as §1

[4] = biological target: T2, DPP IV (Felis catus, UniProt Q9N2I7); assay: DPP IV activity in obese/non-obese cats, 7 days once daily dosing; format: in vivo, cat; settings: 9 mg daily, percent of 0 h
T2 construct: Blood samples for the determination of this compound and DPP IV activity were collected; from tissue; host or cells: plasma of domestic short hair / purpose-bred cats dosed orally
From the text: The aim of this exploratory, randomized, placebo controlled crossover study was to investigate the effect of 1-[(3-cyano-pyridin-2-yl)methyl]-3-methyl-7-(2-butyn-1-yl)-8-[3-(R)-amino-piperidin-1-yl]-xanthine monohydrochloride on DPP IV activity and on glucose concentrations in obese and non-obese cats after repeated oral administration over seven days.
Fourteen clinically healthy male and female (8 obese and 6 non-obese) purpose-bred cats were used in this study. The animals were randomly allocated to two groups of cats, obese and non-obese, and treated in a cross-over design with 9 mg 1-[(3-cyano-pyridin-2-yl)methyl]-3-methyl-7-(2-butyn-1-yl)-8-[3-(R)-amino-piperidin-1-yl]-xanthine monohydrochloride or placebo, once daily for 7 days, with a following wash-out period of 21 days.
Cats were fed once daily 40 min after administration of the compound or the placebo, respectively.
In parallel, DPP IV activity was assessed as above.

[5] = biological target: plasmin (Homo sapiens, UniProt P00747); assay: In vitro selectivity, human proteases: plasmin; format: biochemical; settings: up to 100 μM
From the text: as §1

[6] = biological target: T2, DPP IV; assay: PK/PD studies in cats, summary; format: in vivo, cat
Description: PK/PD studies to measure the effect of different doses of 1-[(3-cyano-pyridin-2-yl)methyl]-3-methyl-7-(2-butyn-1-yl)-8-[3-(R)-amino-piperidin-1-yl]-xanthine CL on DPP IV activity, are presented in the experimental part of this application. […] Larger degrees of DPP IV inhibition, e.g. more than 80% in 24 h can be reached by increased doses. The duration of DPP IV inhibition can be prolonged with higher dosages.

[7] = test system: GLP-1; assay: OGTT in normal cats after 9 mg per cat: GLP-1 concentrations; format: in vivo; settings: for GLP-1 concentration: 9 mg/cat oral, OGTT beginning 1 h after
Description: Cats were fasted overnight and then lightly tranquilized with tiletamine/zolazepam (2 mg per cat intravenously (Fort Dodge Animal Health, Ft. Dodge, Iowa, USA). Glucose was administered via gastric tube (2 g/kg body weight; 80% w/v) after a baseline blood sample had been obtained. […]
Glucose measurements were performed using a colorimetric glucose oxidase method (DCL, Oxford, Conn., USA). Plasma insulin was measured as described in Hoenig et al. (1989), J. Endocrinol., vol. 121, p. 249-251. The concentrations of active GLP-1 were measured with an ELISA kit from Linco (St. Charles, Mo., USA). All samples were tested in duplicate. […] The interassay coefficient of variation (CV) was 7.6%, and the intra-assay CV was 12.1%.
An OGTT like in Example 11 was performed in […] beginning 1 h after oral administration of 9 mg 1-[(3-cyano-pyridin-2-yl)methyl]-3-methyl-7-(2-butyn-1-yl)-8-[3-(R)-amino-piperidin-1-yl]-xanthine monohydrochloride or placebo (2 groups with 6 animals each; 3 male and 3 females per group).

T2 sequence (Q9N2I7 38-765 limits assumed): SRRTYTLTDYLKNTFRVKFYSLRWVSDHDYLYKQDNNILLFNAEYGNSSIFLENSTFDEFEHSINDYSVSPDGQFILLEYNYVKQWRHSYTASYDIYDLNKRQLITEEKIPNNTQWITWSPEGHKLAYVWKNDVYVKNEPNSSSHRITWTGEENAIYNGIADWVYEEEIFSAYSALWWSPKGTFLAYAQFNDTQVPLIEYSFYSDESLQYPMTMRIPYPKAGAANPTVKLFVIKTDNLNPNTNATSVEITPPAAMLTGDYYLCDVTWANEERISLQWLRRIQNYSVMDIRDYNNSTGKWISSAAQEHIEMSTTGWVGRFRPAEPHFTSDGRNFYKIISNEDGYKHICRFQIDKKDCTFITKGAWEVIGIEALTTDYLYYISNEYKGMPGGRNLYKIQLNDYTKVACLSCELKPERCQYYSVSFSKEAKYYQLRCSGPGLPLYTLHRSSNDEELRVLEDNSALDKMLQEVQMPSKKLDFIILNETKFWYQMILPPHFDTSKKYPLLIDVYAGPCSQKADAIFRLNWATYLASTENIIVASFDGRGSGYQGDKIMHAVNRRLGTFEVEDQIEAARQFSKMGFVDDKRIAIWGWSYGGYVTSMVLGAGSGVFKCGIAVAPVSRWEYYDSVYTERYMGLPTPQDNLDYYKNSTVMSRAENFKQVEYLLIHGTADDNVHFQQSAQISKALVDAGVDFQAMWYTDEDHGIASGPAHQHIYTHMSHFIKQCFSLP
plasmin, sequence (P00747 581-810 limits assumed): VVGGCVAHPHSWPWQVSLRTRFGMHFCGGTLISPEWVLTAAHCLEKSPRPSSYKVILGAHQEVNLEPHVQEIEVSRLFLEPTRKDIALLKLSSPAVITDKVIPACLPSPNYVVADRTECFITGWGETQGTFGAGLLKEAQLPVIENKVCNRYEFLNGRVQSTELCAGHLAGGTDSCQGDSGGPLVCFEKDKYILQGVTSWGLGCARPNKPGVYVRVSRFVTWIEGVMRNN
plasmin, sequence (P00747 97-580 partner limits assumed): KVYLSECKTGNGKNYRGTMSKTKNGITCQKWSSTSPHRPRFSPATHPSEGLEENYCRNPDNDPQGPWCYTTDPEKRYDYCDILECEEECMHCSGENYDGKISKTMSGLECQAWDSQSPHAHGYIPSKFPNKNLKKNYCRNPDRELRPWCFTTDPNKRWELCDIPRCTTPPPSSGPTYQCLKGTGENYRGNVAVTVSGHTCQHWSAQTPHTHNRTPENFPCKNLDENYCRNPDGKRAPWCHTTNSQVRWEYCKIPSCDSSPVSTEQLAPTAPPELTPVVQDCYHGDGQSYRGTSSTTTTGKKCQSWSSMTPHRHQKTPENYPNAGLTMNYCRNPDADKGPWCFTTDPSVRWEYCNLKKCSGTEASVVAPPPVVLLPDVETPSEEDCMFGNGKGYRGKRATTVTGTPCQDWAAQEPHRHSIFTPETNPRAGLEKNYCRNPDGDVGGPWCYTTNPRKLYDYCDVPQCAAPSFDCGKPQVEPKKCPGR
T1 sequence (P14740 37-767 limits assumed): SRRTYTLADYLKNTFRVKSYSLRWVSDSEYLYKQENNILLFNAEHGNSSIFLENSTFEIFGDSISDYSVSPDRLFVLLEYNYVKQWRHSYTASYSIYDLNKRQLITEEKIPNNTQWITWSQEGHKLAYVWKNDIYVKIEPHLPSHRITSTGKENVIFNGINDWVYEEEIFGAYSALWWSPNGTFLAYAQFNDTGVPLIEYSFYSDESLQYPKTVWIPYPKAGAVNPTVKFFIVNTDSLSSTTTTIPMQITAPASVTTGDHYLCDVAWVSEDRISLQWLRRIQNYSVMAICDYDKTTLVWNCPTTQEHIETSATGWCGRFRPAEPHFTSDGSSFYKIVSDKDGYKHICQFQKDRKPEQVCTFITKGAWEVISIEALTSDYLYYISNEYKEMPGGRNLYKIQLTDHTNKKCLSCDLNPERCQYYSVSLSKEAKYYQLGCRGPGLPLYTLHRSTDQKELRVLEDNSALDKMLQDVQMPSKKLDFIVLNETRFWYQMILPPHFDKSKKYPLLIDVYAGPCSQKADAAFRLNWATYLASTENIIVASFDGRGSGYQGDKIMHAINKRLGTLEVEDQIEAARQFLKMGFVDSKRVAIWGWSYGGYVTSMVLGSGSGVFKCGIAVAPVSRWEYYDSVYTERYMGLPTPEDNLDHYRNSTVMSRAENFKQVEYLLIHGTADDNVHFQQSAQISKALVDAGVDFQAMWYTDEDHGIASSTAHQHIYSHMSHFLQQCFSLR
DPP 9, sequence (Q86TI2 whole entry): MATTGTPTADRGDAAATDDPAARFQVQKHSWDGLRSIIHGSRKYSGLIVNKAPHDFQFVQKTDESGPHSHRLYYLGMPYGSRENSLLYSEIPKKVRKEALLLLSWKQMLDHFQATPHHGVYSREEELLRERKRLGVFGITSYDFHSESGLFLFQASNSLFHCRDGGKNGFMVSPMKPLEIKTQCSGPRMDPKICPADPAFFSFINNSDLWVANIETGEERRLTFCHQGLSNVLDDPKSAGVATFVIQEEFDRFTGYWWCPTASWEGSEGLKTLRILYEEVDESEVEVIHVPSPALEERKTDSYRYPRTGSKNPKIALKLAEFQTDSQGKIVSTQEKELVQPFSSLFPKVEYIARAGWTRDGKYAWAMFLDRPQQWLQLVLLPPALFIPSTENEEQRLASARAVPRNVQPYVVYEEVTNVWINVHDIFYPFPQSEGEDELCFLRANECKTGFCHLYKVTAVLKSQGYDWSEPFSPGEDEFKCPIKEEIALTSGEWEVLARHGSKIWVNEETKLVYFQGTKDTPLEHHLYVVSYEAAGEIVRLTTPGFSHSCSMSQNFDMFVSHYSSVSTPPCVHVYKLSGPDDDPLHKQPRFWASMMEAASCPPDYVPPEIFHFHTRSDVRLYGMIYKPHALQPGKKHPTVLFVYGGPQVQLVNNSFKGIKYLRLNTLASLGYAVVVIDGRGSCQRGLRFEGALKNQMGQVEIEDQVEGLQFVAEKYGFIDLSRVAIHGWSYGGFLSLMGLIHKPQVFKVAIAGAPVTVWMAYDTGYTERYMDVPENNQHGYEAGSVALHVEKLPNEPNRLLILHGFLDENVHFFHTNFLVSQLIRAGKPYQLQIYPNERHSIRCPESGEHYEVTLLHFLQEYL

With CC#CCn1c(N2CCC[C@@H](N)C2)nc2c1c(=O)n(Cc1ncccc1C#N)c(=O)n2C [1-[(3-cyano-pyridin-2-yl)methyl]-3-methyl-7-(2-butyn-1-yl)-8-[3-(R)-amino-piperidin-1-yl]-xanthine monohydrochloride] as the molecule, how does the “inhibitory effect on thrombin” value [1] read?
The value was “did not exert any inhibitory effect”.

What about the IC50 [2] of the same molecule?
Its IC50 is roughly 0.8 nM.

And the IC50 [3]?
Its IC50 is greater than 10000 nM.

What about the activity at 9 mg ([4]; Non-obese cats (n = 6), 1 h, read-out: DPP-IV activity %, Max) of the same molecule?
The activity at 9 mg was 25.4%.

And the activity at 9 mg ([4]; Non-obese cats (n = 6), 1 h, read-out: DPP-IV activity %, Mean ± STD)?
Its activity at 9 mg is 13.8 ± 5.8%.

And the activity at 9 mg ([4]; Non-obese cats (n = 6), 1 h, read-out: DPP-IV activity %, Median)?
Its activity at 9 mg is 11.3%.

What about the activity at 9 mg ([4]; Non-obese cats (n = 6), 1 h, read-out: DPP-IV activity %, Min) of the same molecule?
Its activity at 9 mg is 8.4%.

What about the activity at 9 mg ([4]; Non-obese cats (n = 6), 6 h, read-out: DPP-IV activity %, Max) of the same molecule?
The activity at 9 mg was 25%.

What about the activity at 9 mg ([4]; Non-obese cats (n = 6), 6 h, read-out: DPP-IV activity %, Mean ± STD) of the same molecule?
Its activity at 9 mg is 14.4 ± 5.7%.

What about the activity at 9 mg ([4]; Non-obese cats (n = 6), 6 h, read-out: DPP-IV activity %, Median) of the same molecule?
Its activity at 9 mg is 11.4%.

What about the activity at 9 mg ([4]; Non-obese cats (n = 6), 6 h, read-out: DPP-IV activity %, Min) of the same molecule?
The activity at 9 mg was 9.5%.

What about the activity at 9 mg ([4]; Non-obese cats (n = 6), 24 h, read-out: DPP-IV activity %, Max) of the same molecule?
Its activity at 9 mg is 45.1%.

What about the activity at 9 mg ([4]; Non-obese cats (n = 6), 24 h, read-out: DPP-IV activity %, Mean ± STD) of the same molecule?
The activity at 9 mg was 20.1 ± 12%.

And the activity at 9 mg ([4]; Non-obese cats (n = 6), 24 h, read-out: DPP-IV activity %, Median)?
The activity at 9 mg was 15.3%.

What about the activity at 9 mg ([4]; Non-obese cats (n = 6), 24 h, read-out: DPP-IV activity %, Min) of the same molecule?
Its activity at 9 mg is 8.6%.

And the activity at 9 mg ([4]; Non-obese cats (n = 6), 72 h, read-out: DPP-IV activity %, Max)?
The activity at 9 mg was 27.9%.

And the activity at 9 mg ([4]; Non-obese cats (n = 6), 72 h, read-out: DPP-IV activity %, Mean ± STD)?
The activity at 9 mg was 18.2 ± 6%.

What about the activity at 9 mg ([4]; Non-obese cats (n = 6), 72 h, read-out: DPP-IV activity %, Median) of the same molecule?
The activity at 9 mg was 18.9%.

And the activity at 9 mg ([4]; Non-obese cats (n = 6), 72 h, read-out: DPP-IV activity %, Min)?
The activity at 9 mg was 8.5%.

What about the activity at 9 mg ([4]; Non-obese cats (n = 6), 168 h, read-out: DPP-IV activity %, Max) of the same molecule?
Its activity at 9 mg is 23.5%.

And the activity at 9 mg ([4]; Non-obese cats (n = 6), 168 h, read-out: DPP-IV activity %, Mean ± STD)?
Its activity at 9 mg is 17.4 ± 4.7%.

And the activity at 9 mg ([4]; Non-obese cats (n = 6), 168 h, read-out: DPP-IV activity %, Median)?
Its activity at 9 mg is 18.2%.

And the activity at 9 mg ([4]; Non-obese cats (n = 6), 168 h, read-out: DPP-IV activity %, Min)?
Its activity at 9 mg is 10.6%.

What about the activity at 9 mg ([4]; Obese cats (n = 8), 1 h, read-out: DPP-IV activity %, Max) of the same molecule?
Its activity at 9 mg is 17.5%.

And the activity at 9 mg ([4]; Obese cats (n = 8), 1 h, read-out: DPP-IV activity %, Mean ± STD)?
The activity at 9 mg was 12.1 ± 4%.

And the activity at 9 mg ([4]; Obese cats (n = 8), 1 h, read-out: DPP-IV activity %, Median)?
The activity at 9 mg was 11.1%.

And the activity at 9 mg ([4]; Obese cats (n = 8), 1 h, read-out: DPP-IV activity %, Min)?
Its activity at 9 mg is 7.5%.

What about the activity at 9 mg ([4]; Obese cats (n = 8), 6 h, read-out: DPP-IV activity %, Max) of the same molecule?
Its activity at 9 mg is 20%.

What about the activity at 9 mg ([4]; Obese cats (n = 8), 6 h, read-out: DPP-IV activity %, Mean ± STD) of the same molecule?
The activity at 9 mg was 11.9 ± 3.9%.

And the activity at 9 mg ([4]; Obese cats (n = 8), 6 h, read-out: DPP-IV activity %, Median)?
Its activity at 9 mg is 10.5%.

What about the activity at 9 mg ([4]; Obese cats (n = 8), 6 h, read-out: DPP-IV activity %, Min) of the same molecule?
The activity at 9 mg was 7.4%.

And the activity at 9 mg ([4]; Obese cats (n = 8), 24 h, read-out: DPP-IV activity %, Max)?
Its activity at 9 mg is 26.5%.

And the activity at 9 mg ([4]; Obese cats (n = 8), 24 h, read-out: DPP-IV activity %, Mean ± STD)?
Its activity at 9 mg is 17 ± 5.2%.

And the activity at 9 mg ([4]; Obese cats (n = 8), 24 h, read-out: DPP-IV activity %, Median)?
Its activity at 9 mg is 15.4%.

And the activity at 9 mg ([4]; Obese cats (n = 8), 24 h, read-out: DPP-IV activity %, Min)?
The activity at 9 mg was 11.4%.

And the activity at 9 mg ([4]; Obese cats (n = 8), 72 h, read-out: DPP-IV activity %, Max)?
Its activity at 9 mg is 23.9%.

What about the activity at 9 mg ([4]; Obese cats (n = 8), 72 h, read-out: DPP-IV activity %, Mean ± STD) of the same molecule?
Its activity at 9 mg is 18.4 ± 4.4%.

What about the activity at 9 mg ([4]; Obese cats (n = 8), 72 h, read-out: DPP-IV activity %, Median) of the same molecule?
Its activity at 9 mg is 18.5%.

And the activity at 9 mg ([4]; Obese cats (n = 8), 72 h, read-out: DPP-IV activity %, Min)?
The activity at 9 mg was 12.2%.

And the activity at 9 mg ([4]; Obese cats (n = 8), 168 h, read-out: DPP-IV activity %, Max)?
Its activity at 9 mg is 39.8%.

What about the activity at 9 mg ([4]; Obese cats (n = 8), 168 h, read-out: DPP-IV activity %, Mean ± STD) of the same molecule?
Its activity at 9 mg is 19.9 ± 9%.

What about the activity at 9 mg ([4]; Obese cats (n = 8), 168 h, read-out: DPP-IV activity %, Median) of the same molecule?
The activity at 9 mg was 19.2%.

And the activity at 9 mg ([4]; Obese cats (n = 8), 168 h, read-out: DPP-IV activity %, Min)?
The activity at 9 mg was 8.6%.

What about the “inhibitory effect on plasmin” value [5] of the same molecule?
Its value is “did not exert any inhibitory effect”.

And the “doses leading to a significant DPP IV inhibition” value [6]?
The value was “more than 0.1 mg/kg”.

What about the “DPP IV inhibition in 24 h” value ([6]; achieved with 1 to 3 mg/kg (˜3 to 9 mg per cat, or 4 to 30 nmol/l in cat plasma)) of the same molecule?
The value was “more than 70%”.

And the “GLP-1 increase compared to Placebo” value ([7]; 9 mg per cat oral, OGTT in normal cats)?
The value was “significantly higher compared to Placebo”.

And the GLP-1 concentration ([7]; 60 min after drug administration)?
The GLP-1 concentration was 3.70 pmol/L.

What about the GLP-1 concentration ([7]; 65 min after drug administration) of the same molecule?
Its GLP-1 concentration is 3.92 pmol/L.

What about the GLP-1 concentration ([7]; 70 min after drug administration) of the same molecule?
The GLP-1 concentration was 4.54 pmol/L.

And the GLP-1 concentration ([7]; 75 min after drug administration)?
Its GLP-1 concentration is 7.28 pmol/L.

What about the GLP-1 concentration ([7]; 90 min after drug administration) of the same molecule?
The GLP-1 concentration was 16.31 pmol/L.

And the GLP-1 concentration ([7]; 120 min after drug administration)?
Its GLP-1 concentration is 26.93 pmol/L.

What about the GLP-1 concentration ([7]; 180 min after drug administration) of the same molecule?
The GLP-1 concentration was 23.25 pmol/L.

What about the GLP-1 concentration ([7]; 240 min after drug administration) of the same molecule?
Its GLP-1 concentration is 14.45 pmol/L.

What about the GLP-1 concentration ([7]; 300 min after drug administration) of the same molecule?
Its GLP-1 concentration is 9.60 pmol/L.

What about the GLP-1 concentration ([7]; 360 min after drug administration) of the same molecule?
The GLP-1 concentration was 6.04 pmol/L.
